Usually IC50 stands for the concentration at which inhibition is half-maximal.

Molecules are shown by their SMILES.

The target in this assay is Factor D (Homo sapiens (Human), UniProt P00746). Nature of the assay: Factor D esterolytic assay (Z-Lys-SBzl substrate, DTNB, 405 nm). The settings on record: Z-Lys-SBzl 1.29 mM, pH 7.5, 10% DMSO, tested a minimum of three times, read-out: Measured Ki (IC50) Value for Compounds: IC50. In kind it is biochemical. The method, boiled down: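 Thioester hydrolysis (Z-Lys-SBzl, 1.29 mM) by human Factor D ([…]) detected through DTNB color at 405 nm over 600 sec, minus 690 nm background. Buffer: 100 mM HEPES pH 7.5, 500 mM NaCl, 10% DMSO; optional room-temperature preincubation before substrate. IC50 derived from percent rate inhibition; at least three runs.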
Sequence of Factor D (P00746 26-253): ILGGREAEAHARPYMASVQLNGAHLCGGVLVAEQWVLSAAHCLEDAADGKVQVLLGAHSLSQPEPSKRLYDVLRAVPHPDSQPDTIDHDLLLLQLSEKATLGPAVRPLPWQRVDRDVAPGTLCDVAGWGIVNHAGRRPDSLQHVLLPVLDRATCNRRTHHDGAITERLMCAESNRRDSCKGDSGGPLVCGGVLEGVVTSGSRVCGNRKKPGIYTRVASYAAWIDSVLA

With `COCc1cc2cc(COc3cc(F)ccc3CC(=O)O)cc(-c3cccc(CN)c3)c2o1` [Compound 477c, 2-(2-((7-(3-(aminomethyl)phenyl)-2-(methoxymethyl)benzofuran-5-yl)methoxy)-4-fluorophenyl)acetic acid], the IC50 was less than 1000 nM.
Under `C[C@H](N)c1cccc(-c2cc(COc3ccccc3CC(=O)O)cc3ccoc23)c1` [Compound 72c, (S)-2-(2-((7-(3-(1-aminoethyl)phenyl)benzofuran-5-yl)methoxy)phenyl)acetic acid] stands less than 1000 nM; under `COCc1cc2cc(COc3cc(OC)ccc3CC(=O)O)cc(-c3ccnc(CN)c3)c2o1` [Compound 472b, 2-(2-((7-(2-(aminomethyl)pyridin-4-yl)-2-(methoxymethyl)benzofuran-5-yl)methoxy)-4-methoxyphenyl)acetic acid], less than 1000 nM; under `NCc1cccc(-c2nc(C(=O)Nc3sccc3CC(=O)O)cc3ccoc23)c1` [Compound 41d, 2-(2-(7-(3-(aminomethyl)phenyl)furo[2,3-c]pyridine-5-carboxamido)thiophen-3-yl)acetic acid], less than 1000 nM.
Under `NCc1nccc(-c2cc(COc3ccccc3CC(=O)O)cc3sc(Cl)cc23)c1F` [Compound 338c, 2-(2-((4-(2-(aminomethyl)-3-fluoropyridin-4-yl)-2-chlorobenzo[b]thiophen-6-yl)methoxy)phenyl)acetic acid] stands less than 1000 nM.
As to `CC(C)n1ccc2c(-c3cccc(CN)c3)cc(COc3ccc(F)cc3CC(=O)O)cc21` [Compound 474c, 2-(2-((4-(3-(aminomethyl)phenyl)-1-isopropyl-1H-indol-6-yl)methoxy)-5-fluorophenyl)acetic acid], the IC50 is less than 1000 nM.
Turning to `COc1c(C(=O)Nc2ccccc2CC(=O)O)cc(-c2ccnc(CN)c2F)c2occc12` [Compound 334d, 2-(2-(7-(2-(aminomethyl)-3-fluoropyridin-4-yl)-4-methoxybenzofuran-5-carboxamido)phenyl)acetic acid], the IC50 lay within 1000 to 10000 nM.
The same measure for `COc1ccc(CC(=O)O)c(OCc2cc(-c3cccc(CN)c3F)c3oc(F)cc3c2)c1` [Compound 481b, 2-(2-((7-(3-(aminomethyl)-2-fluorophenyl)-2-fluorobenzofuran-5-yl)methoxy)-4-methoxyphenyl)acetic acid]: less than 1000 nM; for `CC(=O)Nc1ccc(OCc2cc(-c3cccc(CN)c3)c3occc3c2)c(CC(=O)O)c1` [Compound 360c, 2-(5-acetamido-2-((7-(3-(aminomethyl)phenyl)benzofuran-5-yl)methoxy)phenyl)acetic acid]: less than 1000 nM; for `NCc1cccc(-c2cc(COc3c(CC(=O)O)cccc3-c3ccccc3)cc3ccoc23)c1` [Compound 370f, 2-(2-((7-(3-(aminomethyl)phenyl)benzofuran-5-yl)methoxy)-[1,1′-biphenyl]-3-yl)acetic acid]: less than 1000 nM.
The same measure for `NCc1cccc(-c2cc(COc3ccccc3CC(=O)O)c(F)c3ccoc23)c1` [Compound 136e, 2-(2-((7-(3-(aminomethyl)phenyl)-4-fluorobenzofuran-5-yl)methoxy)phenyl)acetic acid]: less than 1000 nM; for `NCc1cccc(-c2cc(NC(=O)N3CCCC3CC(=O)O)cc3ccoc23)c1` (centres unmarked) [Compound 407d, 2-(1-((7-(3-(aminomethyl)phenyl)benzofuran-5-yl)carbamoyl)pyrrolidin-2-yl)acetic acid]: more than 10000 nM.
Take `NCc1ccc(CC(=O)O)c(OCc2cc(-c3ccnc(CN)c3)c3occc3c2)c1` [Compound 451c, 2-(4-(aminomethyl)-2-((7-(2-(aminomethyl)pyridin-4-yl)benzofuran-5-yl)methoxy)phenyl)acetic acid]: the 50% inhibitory concentration (IC50) is less than 1000 nM.
For `Nc1n[nH]c2c(-c3cc(COc4ccccc4CC(=O)O)cc4ccoc34)cccc12` [Compound 176c, 2-(2-((7-(3-amino-1H-indazol-7-yl)benzofuran-5-yl)methoxy)phenyl)acetic acid], the IC50 lay within 1000 to 10000 nM.

Values taken from US11370774B2, “Substituted benzofuran, benzopyrrole, benzothiophene, and structurally related complement inhibitors” (BioCryst Pharmaceuticals, Inc., priority 2018, dated 2022).
